# From US9546358B2, “Compositions and methods for reducing background DNA amplification” (New England Biolabs, Inc., priority 2012, dated 2017)
# Legend:
# [1] = tested on: non-template amplification; experiment: LAMP assay, suppression of non-template (background) amplification, real-time SYTO-9 fluorescence; assay type: biochemical; conditions: for Minimum effective concentration of individual additive (Compound B) required for suppression of non-template amplification / Minimum effective concentration of individual additive (Compound A) required for suppression of non-template amplification: single additive, 100% suppression; for effect on non-template amplification: lower temperature
# Method: (§1) • 0.4-8 ng/μl DNA polymerase (Bst 2.0-Sso7d) in LAMP Buffer [20 mM Tris, 125 mM KCl, 10 mM (NH4)2SO4, 8 mM MgSO4, 1.4 mM dNTPs, 0.1% Tween-20® (Sigma-Aldrich, St. Louis, Mo.), pH 8.8 25° C.] • 1.6 μM Forward internal primer (FIP)/Back internal primer (BIP), 0.2 μM F3/B3, 0.4 μM LoopF/LoopB • 5 ng λ DNA or none (non-template control) per reaction (25 μl)
# (§2) The additive solution was added to the amplification mixture to provide a final concentration in the range of 0-40% v/v where the stock solution of additive was solubilized in water. For example, concentrations of isobutyramide in the range of 0.005 M-1.5 M, 0.01 M-1.2 M, or 0.01 M-0.7 M and N-methylformamide in the range of 0.01-2 M, 0.02 M-1.5 M, or 0.02 M-1 M (combined for example, at ratios of 10:1, 8:1, 6:1, 4:1, 2:1, 1.8:1, 1.6:1, 1.4:1, 1.2:1, 1:1 of N-methylformamide:isobutyramide) were tested at various temperatures. Other examples included in the final reaction mixture 0.02 M-1.3 M propionamide, 0.2 M-2 M Urea, 0.1 M-3.8 M formamide, 0.05 M-2 M acetamide, 0.02 M-0.5 M valeramide, 0.01 M-2 M N,N-dimethylformamide, 0.01 M-2 M N,N-diethylformamide, 0.01 M-1.8 M N,N-dimethylbutyramide.
# (§3) The extent of amplification of lambda DNA (unless otherwise specified) with a LAMP amplicon size of 100-200 bases was measured by real-time fluorescence using 2 μM SYTO-9® (Life Technologies, Carlsbad, Calif.) double strand DNA intercalating dye (Nagamine, et al., Molecular and Cellular Probes, 16:223-229 (2002)) using the following primers: […]
# The reduction in background fluorescence from non-template amplification was quantitatively assessed. The total reaction time for LAMP is 90 minutes. In the absence of additives, a positive signal for an amplification product of a template could be detected at about 3 minutes-15 minutes at temperatures 55° C.-72° C. and for a non-template signal at 8 minutes-30 minutes at temperatures below about 71° C. When a mixture of additives was included in the amplification mixture, a positive signal for template amplification is still seen at 3 minutes-15 minutes but no signal is seen even after 85 minutes for non-template reactions. This is recorded however as the maximum time to illustrate the synergistic effect. […] In all cases, the effect of the ratio of components of the mixture at specific molar concentrations is greater than the effect of each component small molecule individually tested at the same molar concentration and temperature (exemplified by data in Table 2).
# The synergistic effect of mixing a carboxamide and N-alkylcarboxamide was examined.
# lambda DNA = experiment: LAMP assay, target (template) amplification, real-time SYTO-9 fluorescence; assay type: biochemical, lambda phage
# Method: as §1, §2, §3
# The reduction in background fluorescence from non-template amplification was quantitatively assessed. The total reaction time for LAMP is 90 minutes. In the absence of additives, a positive signal for an amplification product of a template could be detected at about 3 minutes-15 minutes at temperatures 55° C.-72° C. and for a non-template signal at 8 minutes-30 minutes at temperatures below about 71° C. […] This is recorded however as the maximum time to illustrate the synergistic effect. […]
# [2] = isobutyramide increased above 0.4 M
# [3] = N-methylformamide increased above 1.0 M
smiles,measurement,setting,value
"CCN(C=O)CC [DEF, N,N-diethylformamide]",Minimum effective concentration of individual additive (Compound B) required for suppression of non-template amplification,[1]; 65 °C,0.26 M
"CCCC(=O)N(C)C [DMB, N,N-dimethylbutyramide]",Minimum effective concentration of individual additive (Compound A) required for suppression of non-template amplification,[1]; 65 °C,0.24 M
"CN(C)C=O [DMF, N,N-dimethylformamide]",Minimum effective concentration of individual additive (Compound B) required for suppression of non-template amplification,[1]; 65 °C,0.77 M
"NC=O [FA, formamide]",Minimum effective concentration of individual additive (Compound A) required for suppression of non-template amplification,[1]; 65 °C,1.8 M
"CC(C)C(N)=O [IBA, isobutyramide]",suppression of non-template amplification,"[1]; 0.4 M isobutyramide alone, 60 °C",~1%
same,suppression of non-template amplification,"[1]; 0.4 M isobutyramide alone, 65 °C",~10%
same,effect on non-template amplification,[1]; [2],did not affect the non-template amplification at lower temperature
same,Minimum effective concentration of individual additive (Compound A) required for suppression of non-template amplification,[1]; 65 °C,0.41 M
same,effect on target amplification,lambda DNA; [2],further inhibit the target amplification
"CNC=O [NMF, N-methylformamide]",suppression of non-template amplification,"[1]; 1.1 M N-methylformamide alone, 60 °C",~1%
same,suppression of non-template amplification,"[1]; 1.1 M N-methylformamide alone, 65 °C",~10%
same,effect on non-template amplification,[1]; [3],did not affect the non-template amplification at lower temperature
same,effect of increasing amounts of single additive on non-template amplification (time to threshold),"[1]; increasing amounts of 3.2 M N-methylformamide, FIG. 6A",no beneficial effect observed
same,Minimum effective concentration of individual additive (Compound B) required for suppression of non-template amplification,[1]; 65 °C,1.1 M
same,effect on target amplification,"lambda DNA; 1.1 M N-methylformamide, single additive, FIG. 2B",inhibited target amplification above 68 °C
same,effect on target amplification,lambda DNA; [3],further inhibit the target amplification
"CCC(N)=O [PIA, propionamide]",effect of increasing amounts of single additive on non-template amplification (time to threshold),"[1]; increasing amounts of 1.7 M propionamide, FIG. 6B",no beneficial effect observed
same,Minimum effective concentration of individual additive (Compound A) required for suppression of non-template amplification,[1]; 65 °C,0.80 M
"CCCCC(N)=O [VA, valeramide]",Minimum effective concentration of individual additive (Compound A) required for suppression of non-template amplification,[1]; 65 °C,0.20 M
